The assay addresses Vascular endothelial growth factor receptor 2 (Homo sapiens, UniProt P35968).

Sequence of Vascular endothelial growth factor receptor 2 (P35968 whole entry): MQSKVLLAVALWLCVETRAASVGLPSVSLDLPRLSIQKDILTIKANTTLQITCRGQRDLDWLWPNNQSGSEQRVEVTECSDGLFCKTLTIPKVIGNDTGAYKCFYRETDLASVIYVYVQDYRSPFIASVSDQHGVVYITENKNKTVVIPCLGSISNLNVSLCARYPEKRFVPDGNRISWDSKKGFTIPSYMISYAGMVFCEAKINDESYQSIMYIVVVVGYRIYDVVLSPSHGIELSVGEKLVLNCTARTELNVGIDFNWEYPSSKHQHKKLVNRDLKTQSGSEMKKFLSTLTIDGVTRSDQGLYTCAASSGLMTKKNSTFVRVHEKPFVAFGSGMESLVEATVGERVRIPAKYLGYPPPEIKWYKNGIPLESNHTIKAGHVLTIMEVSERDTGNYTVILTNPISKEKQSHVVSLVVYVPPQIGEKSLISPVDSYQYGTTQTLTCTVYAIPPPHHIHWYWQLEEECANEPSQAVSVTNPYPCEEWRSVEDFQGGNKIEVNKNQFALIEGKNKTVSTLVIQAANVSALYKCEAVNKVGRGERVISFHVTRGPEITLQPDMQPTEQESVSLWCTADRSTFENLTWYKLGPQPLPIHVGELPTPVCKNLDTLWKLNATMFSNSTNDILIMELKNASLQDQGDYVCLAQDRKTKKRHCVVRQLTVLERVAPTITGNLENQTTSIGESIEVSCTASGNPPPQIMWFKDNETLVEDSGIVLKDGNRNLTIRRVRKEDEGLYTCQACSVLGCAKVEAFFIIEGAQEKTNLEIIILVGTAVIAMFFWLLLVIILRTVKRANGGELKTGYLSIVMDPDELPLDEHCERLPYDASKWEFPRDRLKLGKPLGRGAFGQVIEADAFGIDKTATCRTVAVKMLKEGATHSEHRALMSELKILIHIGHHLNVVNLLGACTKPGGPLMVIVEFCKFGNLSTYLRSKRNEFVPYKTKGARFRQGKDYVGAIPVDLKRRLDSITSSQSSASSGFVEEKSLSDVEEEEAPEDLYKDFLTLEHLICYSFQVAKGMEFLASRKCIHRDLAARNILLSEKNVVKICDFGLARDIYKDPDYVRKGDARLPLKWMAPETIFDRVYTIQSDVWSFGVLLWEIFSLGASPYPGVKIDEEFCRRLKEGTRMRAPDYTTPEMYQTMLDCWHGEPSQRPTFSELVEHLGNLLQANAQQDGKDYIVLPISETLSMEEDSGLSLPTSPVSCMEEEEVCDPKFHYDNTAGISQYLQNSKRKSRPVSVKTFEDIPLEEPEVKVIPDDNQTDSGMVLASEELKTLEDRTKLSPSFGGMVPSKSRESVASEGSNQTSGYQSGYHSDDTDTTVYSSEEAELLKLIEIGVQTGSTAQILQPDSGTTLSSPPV

Consider `O=C1Nc2ccccc2/C1=C\c1sccc1Br`, for which the concentration for half-maximal inhibition (IC50) was determined as 15.4 µM.
Turning to `Cn1cccc1/C=C1/C(=O)Nc2ccccc21`, half-maximal inhibition (IC50) required 20 µM. This IC50 and that of the molecule before are within 1.5-fold of each other.
Under `Cc1cccc2c1/C(=C\c1ccc[nH]1)C(=O)N2` stands 31 µM.

Usually IC50 stands for the concentration that gives 50% inhibition. The low end stands for higher potency, the high end for lower potency.

(Values after ChEMBL document CHEMBL1144621, “Pharmacophore modeling and in silico screening for new KDR kinase inhibitors” (Bioorg Med Chem Lett, 2007).)
